Columns and labels:
Format in all cases: in vivo
Details in all cases: 5 mg/kg oral gavage
MAGL = MAGL (Mus musculus (Mouse), UniProt O35678); test: Mouse brain proteomes from inhibitor treated mice (oral gavage, sacrifice 4 h after administration, ABPP analysis)
Procedure, shortened: (§1)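 Mice (wild-type C57Bl/6J) receive inhibitor by oral gavage, e.g. in PEG400/Ethanol/PBS (7/2/1). Each animal is killed 4 h later. Brain proteomes are prepared and analyzed by ABPP, giving % inhibition at 5 mg/kg.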

ABHD6 = ABHD6 (Mus musculus (Mouse), UniProt Q8R2Y0); test: Mouse brain proteomes from inhibitor treated mice (oral gavage, sacrifice 4 h after administration, ABPP analysis), ABHD6
Procedure, shortened: as §1

FAAH = FAAH (Mus musculus (Mouse), UniProt O08914); test: Mouse brain proteomes from inhibitor treated mice (oral gavage, sacrifice 4 h after administration, ABPP analysis), FAAH
Procedure, shortened: as §1

MAGL, sequence (O35678 whole entry): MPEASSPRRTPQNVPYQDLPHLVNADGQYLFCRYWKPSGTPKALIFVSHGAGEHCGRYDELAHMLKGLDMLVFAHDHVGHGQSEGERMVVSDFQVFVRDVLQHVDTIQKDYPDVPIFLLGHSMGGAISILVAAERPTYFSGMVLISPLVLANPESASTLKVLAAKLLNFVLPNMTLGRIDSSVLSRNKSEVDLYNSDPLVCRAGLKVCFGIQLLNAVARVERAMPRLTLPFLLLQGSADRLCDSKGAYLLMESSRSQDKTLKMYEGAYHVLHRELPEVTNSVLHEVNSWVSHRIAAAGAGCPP
FAAH, sequence (O08914 whole entry): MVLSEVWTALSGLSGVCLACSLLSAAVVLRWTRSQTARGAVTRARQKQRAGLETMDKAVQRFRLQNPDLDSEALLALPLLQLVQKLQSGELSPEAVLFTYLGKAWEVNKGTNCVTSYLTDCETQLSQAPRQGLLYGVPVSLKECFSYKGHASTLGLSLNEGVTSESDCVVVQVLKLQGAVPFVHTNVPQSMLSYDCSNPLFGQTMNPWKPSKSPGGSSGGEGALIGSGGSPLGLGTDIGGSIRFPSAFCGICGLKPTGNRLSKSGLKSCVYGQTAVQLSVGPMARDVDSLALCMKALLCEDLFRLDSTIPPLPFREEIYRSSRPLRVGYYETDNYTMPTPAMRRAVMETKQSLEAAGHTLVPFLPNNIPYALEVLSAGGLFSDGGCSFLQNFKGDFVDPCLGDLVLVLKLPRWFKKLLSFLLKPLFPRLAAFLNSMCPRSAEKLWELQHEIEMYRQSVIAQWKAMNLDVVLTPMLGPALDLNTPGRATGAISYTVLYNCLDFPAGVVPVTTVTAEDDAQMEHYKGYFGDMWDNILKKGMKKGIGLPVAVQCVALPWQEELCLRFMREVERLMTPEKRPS
ABHD6, sequence (Q8R2Y0 whole entry): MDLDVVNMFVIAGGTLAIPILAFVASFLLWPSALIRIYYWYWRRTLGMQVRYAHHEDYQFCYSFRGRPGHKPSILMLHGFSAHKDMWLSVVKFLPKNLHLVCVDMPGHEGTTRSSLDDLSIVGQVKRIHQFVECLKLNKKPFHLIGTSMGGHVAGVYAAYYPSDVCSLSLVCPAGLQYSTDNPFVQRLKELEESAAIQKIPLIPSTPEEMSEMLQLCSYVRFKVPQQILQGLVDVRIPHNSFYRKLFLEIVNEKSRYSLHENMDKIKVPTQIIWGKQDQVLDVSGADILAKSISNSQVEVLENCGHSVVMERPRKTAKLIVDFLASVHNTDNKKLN

Row | SMILES | MAGL % Inh 5 mg/kg (mouse) (MAGL) | ABHD6 % Inh 5 mg/kg (mouse) (ABHD6) | FAAH % Inh 5 mg/kg (mouse) (FAAH)
1 | Cc1c(CN2CCCC23CCN(C(=O)OC(C(F)(F)F)C(F)(F)F)CC3)cccc1N1CC2CCC(C1)O2 [Example 86, 1,1,1,3,3,3-Hexafluoropropan-2-yl 1-(3-(8-oxa-3-azabicyclo[3.2.1]octan-3-yl)-2-methylbenzyl)-1,8-diazaspiro[4.5]decane-8-carboxylate] | ### (### is ≥ 75%) | # (# is < 25%) | # (# is < 25%)
2 | CS(=O)(=O)N1CCN(c2cc(C(F)(F)F)ccc2CN2CCCC23CCN(C(=O)OC(C(F)(F)F)C(F)(F)F)CC3)CC1 [Example 89, 1,1,1,3,3,3-Hexafluoropropan-2-yl 1-(2-(4-(methylsulfonyl)piperazin-1-yl)-4-(trifluoromethyl)benzyl)-1,8-diazaspiro[4.5]decane-8-carboxylate] | # (# is < 25%) | # (# is < 25%) | # (# is < 25%)
3 | O=C(OC(C(F)(F)F)C(F)(F)F)N1CCC2(CCCN2Cc2ccc(C(F)(F)F)cc2N2CCC(F)CC2)CC1 [Example 91, 1,1,1,3,3,3-Hexafluoropropan-2-yl 1-(2-(4-fluoropiperidin-1-yl)-4-(trifluoromethyl)benzyl)-1,8-diazaspiro[4.5]decane-8-carboxylate] | ### (### is ≥ 75%) | # (# is < 25%) | # (# is < 25%)
4 | CC(=O)NC1CCN(c2cc(C(F)(F)F)ccc2CN2CCCC23CCN(C(=O)OC(C(F)(F)F)C(F)(F)F)CC3)CC1 [Example 93, 1,1,1,3,3,3-Hexafluoropropan-2-yl 1-(2-(4-acetamidopiperidin-1-yl)-4-(trifluoromethyl)benzyl)-1,8-diazaspiro[4.5]decane-8-carboxylate] | ### (### is ≥ 75%) | # (# is < 25%) | # (# is < 25%)
5 | CS(=O)(=O)NC1CCN(c2cc(C(F)(F)F)ccc2CN2CCCC23CCN(C(=O)OC(C(F)(F)F)C(F)(F)F)CC3)CC1 [Example 94, 1,1,1,3,3,3-Hexafluoropropan-2-yl 1-(2-(4-(methylsulfonamido)piperidin-1-yl)-4-(trifluoromethyl)benzyl)-1,8-diazaspiro[4.5]decane-8-carboxylate] | # (# is < 25%) | # (# is < 25%) | # (# is < 25%)
6 | O=C(OC(C(F)(F)F)C(F)(F)F)N1CCC2(CCCN2Cc2ccc(C(F)(F)F)cc2N2CCC2)CC1 [Example 96, 1,1,1,3,3,3-Hexafluoropropan-2-yl 1-(2-(azetidin-1-yl)-4-(trifluoromethyl)benzyl)-1,8-diazaspiro[4.5]decane-8-carboxylate] | ### (### is ≥ 75%) | # (# is < 25%) | # (# is < 25%)
7 | O=C(OC(C(F)(F)F)C(F)(F)F)N1CCC2(CCCN2Cc2ccc(C(F)(F)F)cc2N2CC3COCC3C2)CC1 (stereo not drawn) [Example 97, 1,1,1,3,3,3-Hexafluoropropan-2-yl 1-(2-(tetrahydro-1H-furo[3,4-c]pyrrol-5(3H)-yl)-4-(trifluoromethyl)benzyl)-1,8-diazaspiro[4.5]decane-8-carboxylate] | ### (### is ≥ 75%) | # (# is < 25%) | # (# is < 25%)
8 | CC(=O)N1CCN(c2cc(Cl)ccc2CN2CCCC23CCN(C(=O)OC(C(F)(F)F)C(F)(F)F)CC3)CC1 [Example 99, 1,1,1,3,3,3-Hexafluoropropan-2-yl 1-(2-(4-acetylpiperazin-1-yl)-4-chlorobenzyl)-1,8-diazaspiro[4.5]decane-8-carboxylate] | ### (### is ≥ 75%) | # (# is < 25%) | # (# is < 25%)
9 | CS(=O)(=O)N1CCN(c2cc(Cl)ccc2CN2CCCC23CCN(C(=O)OC(C(F)(F)F)C(F)(F)F)CC3)CC1 [Example 100, 1,1,1,3,3,3-Hexafluoropropan-2-yl 1-(4-chloro-2-(4-(methylsulfonyl)piperazin-1-yl)benzyl)-1,8-diazaspiro[4.5]decane-8-carboxylate] | ### (### is ≥ 75%) | # (# is < 25%) | # (# is < 25%)
10 | O=C(OC(C(F)(F)F)C(F)(F)F)N1CCC2(CCCN2Cc2ccc(Cl)cc2N2CCC(F)(F)CC2)CC1 [Example 101, 1,1,1,3,3,3-Hexafluoropropan-2-yl 1-(4-chloro-2-(4,4-difluoropiperidin-1-yl)benzyl)-1,8-diazaspiro[4.5]decane-8-carboxylate] | ### (### is ≥ 75%) | # (# is < 25%) | # (# is < 25%)
11 | O=C(OC(C(F)(F)F)C(F)(F)F)N1CCC2(CCCN2Cc2ccc(Cl)cc2N2CCC(F)CC2)CC1 [Example 102, 1,1,1,3,3,3-Hexafluoropropan-2-yl 1-(4-chloro-2-(4-fluoropiperidin-1-yl)benzyl)-1,8-diazaspiro[4.5]decane-8-carboxylate] | ### (### is ≥ 75%) | # (# is < 25%) | # (# is < 25%)
12 | CS(=O)(=O)NC1CCN(c2cc(Cl)ccc2CN2CCCC23CCN(C(=O)OC(C(F)(F)F)C(F)(F)F)CC3)CC1 [Example 105, 1,1,1,3,3,3-Hexafluoropropan-2-yl 1-(4-chloro-2-(4-(methylsulfonamido)piperidin-1-yl)benzyl)-1,8-diazaspiro[4.5]decane-8-carboxylate] | # (# is < 25%) | # (# is < 25%) | # (# is < 25%)
13 | O=C(OC(C(F)(F)F)C(F)(F)F)N1CCC2(CCCN2Cc2ccc(Cl)cc2N2CC3COCC3C2)CC1 (stereo not drawn) [Example 108, 1,1,1,3,3,3-Hexafluoropropan-2-yl 1-(4-chloro-2-(tetrahydro-1H-furo[3,4-c]pyrrol-5(3H)-yl)benzyl)-1,8-diazaspiro[4.5]decane-8-carboxylate] | ### (### is ≥ 75%) | # (# is < 25%) | # (# is < 25%)
14 | O=C(O)C1CCN(c2cc(C(F)(F)F)ccc2CN2CCC3(CCN(C(=O)OC(C(F)(F)F)C(F)(F)F)CC3)C2)CC1 [Example 119, 1-(2-((8-(((1,1,1,3,3,3-Hexafluoropropan-2-yl)oxy)carbonyl)-2,8-diazaspiro[4.5]decan-2-yl)methyl)-5-(trifluoromethyl)phenyl)piperidine-4-carboxylic acid] | ### (### is ≥ 75%) | ### (### is ≥ 75%) | # (# is < 25%)
